The source of these data is patent US20260209277A1, “COMPOUNDS FOR RNA STABILISATION AND DELIVERY” (STICHTING VU, priority 2022, published 2026).

What is called Kd is a measure of binding affinity in units of concentration.

No end group written: not given here. Bounds are passed on as bounds.

Experiment [1] deals with miR-21. Kind of experiment: Electrophoretic mobility shift assay (EMSA) with miR-21. It counts as binding. The settings on record: c(RNA)=3 μM; for dsRNA binding in EMSA (band shift): c(peptide)=6 μM, 15% native PAGE. From the text: With the desired peptides in hand, we first assessed their dsRNA-binding potential using an electrophoretic mobility shift assay (EMSA). Making use of non-denaturing conditions, EMSA allows to resolve biomolecular complexes by size and charge character.
WT33 was employed as comparative positive control for peptide binding while the double-stranded microRNA, miR-21, was chosen as a sample dsRNA target for this assay. Comprised of an 18 base pair (bp) duplex, miR-21 can accommodate the binding of two wt33 monomers, similar to siRNA duplexes. Under established EMSA conditions, miR-21 resolves as two bands, a lower band corresponding to both unbound single strands and a higher, more distinct band (ca. 20 bp) corresponding to the miR-21 duplex (FIG. 2a). […] With reference to wt33, the most prominent elevated band (ca. 30 bp) likely corresponds to a 1:1 peptide/dsRNA complex while the upper band may represent a higher order structure. The reduction in ds and ssRNA band intensity is likely a result of these binding events.
Additionally, EMSA experiments were performed where dsRNA was incubated with either peptide 1^∘∘1 or 2^∘∘2 in the presence or absence TCEP. […] Having verified the tuneable, dsRNA-binding abilities of our peptide dimers, their use a cellular siRNA delivery tools was confirmed.
Electrophoretic mobility shift assays (EMSA's) were performed using a Bio-Rad MiniProtean gel system paired with a direct current (DC) power source (PowerPac™ HC, BioRad). Typically, 6 μL solutions containing RNA (concentration=3 μM) and peptide (concentration=6 μM) were incubated for 1 h at RT in a binding buffer (1×TAE and 10% glycerol). For gels monitoring disulfide reduction, peptide/RNA solutions were incubated in increasing concentrations (concentration=6, 60 and 600 μM) of TCEP. After incubation, bound nucleic acid complexes were resolved using 15% and 10% non-denaturing polyacrylamide gels (acrylamide:bis-acrylamide (19:1) in 1×TAE) at 150 V or 120 V in running buffer (1×TAE) at 4° C. for 1.5 hours. […]
Background: A gel shift assay detects complexes by their altered migration in electrophoresis.

The subject of experiment [2] is miR-21. Put plainly: Isothermal titration calorimetry (ITC). It counts as binding. The note with it: for N-value (peptides per miR-21 duplex) / −TΔS (entropic penalty) / Kd: 30° C.; for Kd: 1×PBS. As for the experimental part: To confirm RNA-binding, isothermal titration calorimetry (ITC) was used. […] For wt33 this is in line with applicants' previously reported observations.
Isothermal titration calorimetry (ITC) was conducted using a VP-ITC (MicroCal). Before measurement, annealed miR-21 and peptide samples were dissolved in 1×PBS and degassed using a ThermoVac and heated to 30° C. miR-21 (c=6-15 μM) was then transferred into the sample cell (1.8 mL) and peptides (c=86-305 μM) were transferred into the syringe (300 μL). 37 Injections per measurement were performed at 30° C. (8 μl injection volume, 3.2 s injection time, 180 s spacing, high feedback mode) with an initial delay of 60 s and a stirring speed of 310 rpm. Data were analyzed using the MicroCal LLC ITC software (Origin; OriginLab Corporation), the heat associated with each injection was calculated by integrating the area under the curve for each injection and then normalized to concentration. A ‘single set of identical binding sites’ model was used to fit the binding curves from which thermodynamic binding parameters (ΔG, ΔH, ΔS, N and Kd) were calculated.
(In general: Isothermal titration calorimetry measures the heat released or taken up as one component is titrated into another.)

Experiment [3] relates to miR-21. Put plainly: Stabilization Assay of miR-21 in fetal bovine serum. It counts as in vitro ADME. The note with it: miR-21 9 μM, peptide 18 μM; for stabilizing effect on miR-21 in increasing FBS: 10 min at 37° C., FBS gradient. As for the experimental part: The rapid degradation of RNA by nucleases in serum is one of the central challenges associated with the therapeutic use of RNA. Applicants were therefore interested whether peptide binding promotes RNA stability in serum. For this purpose, miR-21 was incubated with different concentrations of fetal bovine serum (FBS) at 37° C., followed by phenol/chloroform extraction and PAGE analysis (FIG. 14). […] Both is in line with their reduced affinity for miR-21 (FIGS. 12a and 12b). To investigate the time-dependence of RNA stability, a prolonged incubation of RNA in serum (27.5% FBS) was performed, and the remaining RNA visualized by native PAGE (FIG. 14d). Remarkably, even after 6 hours, miR-21 was still detectable in the presence of peptide 2^∘∘2, while in the absence of the peptide, RNA was fully degraded within 15 minutes in line with afore made observations. These findings highlight the potential of peptide 2^∘∘2 to strongly enhance the stability of dsRNA in serum.
RNA stabilization was investigated by incubation of peptide/RNA complexes with fetal bovine serum (FBS) (Thermo Fischer Scientific). Peptide/RNA complexes were formed as described above after which defined amounts of FBS were added (concentration(RNA)=9 μM, concentration(peptide)=18 μM, total volume 10 μL). For gradient stability assay FBS containing RNA solutions were incubated at 37° C. for 10 min and for time course analysis at room temperature with 27.5% FBS. After incubation, 10 μL of NaOAc (3 M), 1 μL Glycogen (Thermo Fischer Scientific), 1 μL Ribolock (Thermo Fischer Scientific) and ddH2O was added on ice to a total volume of 200 μL.
RNA was extracted twice with freshly prepared solution of phenol/chloroform (5:1, 2 mL). After ethanol precipitation (1 mL) of the aqueous phase RNA pallets were redissolved in 8 μL ddH2O and added 2 μL 6×BB and then loaded into a native PAGE gel and run with previously described conditions.

Experiment [4] relates to miR-21. Kind of experiment: Thermal denaturation assay (CD, Tm determination) of miR-21/peptide complexes. It counts as binding. The settings on record: for melting temperature (Tm) of miR-21 co-incubated with peptide: equimolar c=2 μM, ellipticity at λ=267 nm, miR-21 alone 51° C. The text has this:
A thermal denaturation assay was next used to further characterize the dsRNA binding abilities of our peptides. Typically employed in the study of nucleic acid complexes, thermal denaturation assays make use of the spectral changes resulting from complex unfolding as temperature is increased. Using circular dichroism (CD) spectroscopy as a readout, we measured the changes in ellipticity at λ=267 nm, the wavelength maxima associated with A-form dsRNA. In line with previous measurements, the mid-point of denaturation or melting temperature (Tm) associated with miR-21 is 51° C. (FIG. 2b and FIG. 2c). To assess the stability of peptide-dsRNA complexes, peptides were co-incubated with miR-21 at an equimolar concentration (c=2 μM) and measured analogously. […] Contrastingly, incubation with dimeric peptide 1^∘∘1 leads to a greater increase stabilization (Tm=56° C., FIG. 2b) which was also seen for peptide 2 (Tm=58° C., FIG. 2c). […] CD spectroscopy allows not only the measurement of thermal denaturation profiles but can also be used to compare the structural characteristics of biomolecular complexes. […]
Circular dichroism (CD) spectra were recorded with a Jasco J-1500 spectropolarimeter (Jasco) equipped with a programmable Peltier thermostat in a stoppered quartz cuvette (10 mm; Hellma). […] For each sample, 10 CD spectra were measured between 200 nm and 350 nm with continuous scan mode (1 mdeg sensitivity, 1.0 nm resolution, 1.0 nm bandwidth, 2 s integration time, 100 nm/min scan rate). […]
where θ=observed ellipticity/mdeg, c=DNA or RNA strand concentration/mol/L and l=path length/cm. Melting temperature (Tm) determination was conducted with the same instrumentation and sample preparation, where ellipticity (θ=267 nm) was measured by ramping the temperature from 15-90° C. […] Raw data were normalized as described above, and Tm-values were determined using the CDpal program before being plotted in Prism 5.0 (GraphPad).

The subject of another experiment is HEK293 cells. Put plainly: Confocal microscopy of Cy5-siRNA uptake in HEK cells. It counts as cell-based. The note with it: HEK293, Cy5-siRNA 1 μM. The procedure:
For that purpose, a 21 nt long siRNA comprised of a 19 bp stem and equipped with the far-red fluorescent label, cyanine 5 (Cy5) to monitor RNA internalization (Cy5-siRNA, FIG. 7a) was employed. Initially, HEK293 cells were incubated with Cy5-siRNA (c=1 μM, 37° C., 1 h) before being imaged by confocal fluorescence microscopy. […] To assess the tunability of this effect, Cy5-siRNA/1^∘∘1 or Cy5-siRNA/2^∘∘2 complexes were also pre-treated with the reducing agent dithiothreitol (DTT) in order to promote complex disassembly.
HEK cells were seeded at a density of 40000 cells per well on an 8 well micro-slide (Ibidi), one day before the experiment. They were cultured in DMEM (Thermofisher Scientific), supplemented with 10% Fetal Calf Serum (FCS, PAN Biotech) and glutamax (Life technologies). Before starting the experiment, the peptides and Cy5-labelled siRNA were incubated at a peptide/siRNA ratio of 2:1 (6 μM-3 μM) for 1 h. In case for dithiothreitol (DTT) supplemented experiments, DTT was added to a concentration of 20 mM. The samples were diluted to a final siRNA concentration of 1 μM in serum free DMEM. Cells were washed 1× to remove FCS, and incubated in the siRNA:peptide solution for 1 hour at 37° C. After incubation, cells were washed with the phenol-red free DMEM with HEPES, and imaged. […]

The subject of the next experiment is RNA hairpins (HP 1-5). Put plainly: EMSA with RNA hairpins (HP 1-5). It counts as binding. The note with it: HP 1-5 c=1 μM, peptide c=4 μM. The procedure:
The binding of 2^∘∘2 to a set of five ds RNA hairpins, composed of different, complementary 19 base pair stems bridged via a fixed 6 nucleotide loop (FIG. 8a).
Electrophoretic mobility shift assays (EMSA's) were performed using a Bio-Rad MiniProtean gel system paired with a direct current (DC) power source (PowerPac™ HC, BioRad). […] For gels monitoring disulfide reduction, peptide/RNA solutions were incubated in increasing concentrations (concentration=6, 60 and 600 μM) of TCEP. After incubation, bound nucleic acid complexes were resolved using 15% and 10% non-denaturing polyacrylamide gels (acrylamide:bis-acrylamide (19:1) in 1×TAE) at 150 V or 120 V in running buffer (1×TAE) at 4° C. for 1.5 hours. For nucleic acid visualization, gels were stained using 2 μL of SYBR™ gold nucleic acid gel dye (Invitrogen) in 20 mL of 1×TAE buffer for 15 minutes at RT before being imaged using a Bio-Rad ChemiDoc.

For “Ac-KKQAQRKRHKLNRKERGHKSPSEQRRSELWHAR (SEQ ID NO 19); 33-amino acid TAV2b RNA-binding peptide without dimerization motif, comparative positive control [wt33, reference compound]”, the “dsRNA binding in EMSA (band shift)” value in the experiment with miR-21 [1] was “smeared elevated band (ca. 50 bp), corresponding to a 2:1, peptide/dsRNA complex”. Also, in the experiment on miR-21 [2], the “N-value (peptides per miR-21 duplex)” value was 1.91, the “−TΔS (entropic penalty)” value is 9.3 kcal/mol and binding was characterised by a dissociation constant (Kd) of 328 nM. For the same substance, the “stabilizing effect on miR-21 in increasing FBS” value in the experiment with miR-21 [3] is “considerably smaller”. Moreover, the “melting temperature (Tm) of miR-21 co-incubated with peptide” value in the experiment with miR-21 [4] came out at 58 °C.
For the substance “N-terminal disulfide (S-S) homodimer of stapled XβNQKKQAQRKRHKS5NRKS5R (SEQ ID NO 23) [peptide 2^∘∘2]”, in the experiment on miR-21 [1] (c(ligand)=6 μM, c(TCEP)=6, 60 and 600 μM), the “EMSA of dsRNA/peptide complex with increasing TCEP” value was “partial disassembly or unlocking of the dsRNA-peptide complex”. Also, the “dsRNA binding in EMSA (band shift)” value in the experiment with miR-21 [1] is recorded as “comparable band is also observed”. Further, the “cellular uptake of Cy5-siRNA co-incubated with peptide (fluorescence)” value in the experiment on HEK293 cells (37° C., 1 h, versus Cy5-siRNA alone) was “increase in fluorescence intensity”. In the experiment on HEK293 cells (DTT pre-treatment (20 mM)), the “cellular uptake of Cy5-siRNA/peptide complex pre-treated with DTT” value is given as “decrease cellular fluorescence intensities”. Moreover, in the experiment with miR-21 [2], the “N-value (peptides per miR-21 duplex)” value is listed as 1.89, the “−TΔS (entropic penalty)” value stood at 5.7 kcal/mol and the dissociation constant Kd was 31.7 nM. The “fold higher affinity than wt33” value in the experiment with miR-21 [2] (Kd ratio versus wt33) was 10 fold. For the same substance, the “time miR-21 still detectable in serum in presence of peptide” value in the experiment on miR-21 [3] (27.5% FBS, room temperature, without peptide fully degraded within 15 minutes) was ≥ 6 h. In addition, the “stabilizing effect on miR-21 in increasing FBS” value in the experiment with miR-21 [3] is “residual RNA levels at 20% FBS to be comparable to those at 1% FBS in the absence of peptide”. Also, the “binding to RNA hairpins in EMSA” value in the experiment on RNA hairpins (HP 1-5) was “showed binding to each hairpin”. Also, the “melting temperature (Tm) of miR-21 co-incubated with peptide” value in the experiment with miR-21 [4] came to 60 °C. Moreover, in the experiment with miR-21 [4] (excess reducing agent, 1 mM TCEP vs no TCEP), the “ΔTm, lowering of melting temperature of dsRNA complex by TCEP” value stood at 4 °C.
